{
  "source": "ChEMBL document CHEMBL1781873",
  "about": "“Synthesis and antibacterial property of pyrrolopyrano quinolinones and pyrroloquinolines” (2011)",
  "key": {"Escherichia coli [1]": {"system": "Escherichia coli", "test": "Inhibition of Escherichia coli DNA gyrase assessed as inhibition of DNA supercoiling activity using pBR322 DNA as substrate at […] after 3 hrs by agarose gel electrophoresis"}, "Salmonella typhi [2]": {"system": "Salmonella typhi", "test": "Antibacterial activity against Salmonella typhi at 5 ug after 24 hrs by disc diffusion assay", "format": "functional, Salmonella enterica subsp. enterica serovar Typhi", "conditions": "Salmonella enterica, read-out: IZ"}, "Escherichia coli [3]": {"system": "Escherichia coli", "test": "Inhibition of DNA gyrase mRNA expression in Escherichia coli measured up to 24 hrs by RT-PCR", "format": "functional, organism-based"}, "Escherichia coli [4]": {"system": "Escherichia coli", "test": "Antibacterial activity against Escherichia coli at 5 ug after 24 hrs by disc diffusion assay", "format": "functional", "conditions": "read-out: IZ"}, "Klebsiella pneumoniae [5]": {"system": "Klebsiella pneumoniae", "test": "Antibacterial activity against Klebsiella pneumoniae at 5 ug after 24 hrs by disc diffusion assay", "format": "functional", "conditions": "read-out: IZ"}, "Bacillus subtilis [6]": {"system": "Bacillus subtilis", "test": "Antibacterial activity against Bacillus subtilis after 18 to 20 hrs by broth micro dilution assay", "format": "functional"}, "Pseudomonas aeruginosa [7]": {"system": "Pseudomonas aeruginosa", "test": "Antibacterial activity against Pseudomonas aeruginosa at 10 ug after 24 hrs by disc diffusion assay", "format": "functional", "conditions": "read-out: IZ"}, "Staphylococcus aureus [8]": {"system": "Staphylococcus aureus", "test": "Antibacterial activity against Staphylococcus aureus at 25 ug after 24 hrs by disc diffusion assay", "format": "functional", "conditions": "read-out: IZ"}, "Escherichia coli [9]": {"system": "Escherichia coli", "test": "Antibacterial activity against Escherichia coli at 10 ug after 24 hrs by disc diffusion assay", "format": "functional", "conditions": "read-out: IZ"}, "Staphylococcus aureus [10]": {"system": "Staphylococcus aureus", "test": "Antibacterial activity against Staphylococcus aureus at 5 ug after 24 hrs by disc diffusion assay", "format": "functional", "conditions": "read-out: IZ"}, "Pseudomonas aeruginosa [11]": {"system": "Pseudomonas aeruginosa", "test": "Antibacterial activity against Pseudomonas aeruginosa after 18 to 20 hrs by broth micro dilution assay", "format": "functional"}, "Escherichia coli [12]": {"system": "Escherichia coli", "test": "Antibacterial activity against Escherichia coli at 15 ug after 24 hrs by disc diffusion assay", "format": "functional", "conditions": "read-out: IZ"}, "Salmonella typhi [13]": {"system": "Salmonella typhi", "test": "Antibacterial activity against Salmonella typhi at 20 ug after 24 hrs by disc diffusion assay", "format": "functional, Salmonella enterica subsp. enterica serovar Typhi", "conditions": "Salmonella enterica, read-out: IZ"}, "Staphylococcus aureus [14]": {"system": "Staphylococcus aureus", "test": "Antibacterial activity against Staphylococcus aureus at 20 ug after 24 hrs by disc diffusion assay", "format": "functional", "conditions": "read-out: IZ"}, "Klebsiella pneumoniae [15]": {"system": "Klebsiella pneumoniae", "test": "Antibacterial activity against Klebsiella pneumoniae at 20 ug after 24 hrs by disc diffusion assay", "format": "functional", "conditions": "read-out: IZ"}, "Pseudomonas aeruginosa [16]": {"system": "Pseudomonas aeruginosa", "test": "Antibacterial activity against Pseudomonas aeruginosa at 20 ug after 24 hrs by disc diffusion assay", "format": "functional", "conditions": "read-out: IZ"}, "Salmonella typhi [17]": {"system": "Salmonella typhi", "test": "Antibacterial activity against Salmonella typhi at 10 ug after 24 hrs by disc diffusion assay", "format": "functional, Salmonella enterica subsp. enterica serovar Typhi", "conditions": "Salmonella enterica, read-out: IZ"}, "Pseudomonas aeruginosa [18]": {"system": "Pseudomonas aeruginosa", "test": "Antibacterial activity against Pseudomonas aeruginosa at 5 ug after 24 hrs by disc diffusion assay", "format": "functional", "conditions": "read-out: IZ"}, "Salmonella typhi [19]": {"system": "Salmonella typhi", "test": "Antibacterial activity against Salmonella typhi after 18 to 20 hrs by broth micro dilution assay", "format": "functional, Salmonella enterica subsp. enterica serovar Typhi", "conditions": "Salmonella enterica"}, "Escherichia coli [20]": {"system": "Escherichia coli", "test": "Antibacterial activity against Escherichia coli after 18 to 20 hrs by broth micro dilution assay", "format": "functional"}, "Escherichia coli [21]": {"system": "Escherichia coli", "test": "Inhibition of Escherichia coli DNA gyrase -mediated DNA relaxation using pBR322 DNA as substrate at […] after 1 hrs by agarose gel electrophoresis"}, "Salmonella typhi [22]": {"system": "Salmonella typhi", "test": "Antibacterial activity against Salmonella typhi at 15 ug after 24 hrs by disc diffusion assay", "format": "functional, Salmonella enterica subsp. enterica serovar Typhi", "conditions": "Salmonella enterica, read-out: IZ"}, "Bacillus subtilis [23]": {"system": "Bacillus subtilis", "test": "Antibacterial activity against Bacillus subtilis at 15 ug after 24 hrs by disc diffusion assay", "format": "functional", "conditions": "read-out: IZ"}, "Bacillus subtilis [24]": {"system": "Bacillus subtilis", "test": "Antibacterial activity against Bacillus subtilis at 25 ug after 24 hrs by disc diffusion assay", "format": "functional", "conditions": "read-out: IZ"}, "Klebsiella pneumoniae [25]": {"system": "Klebsiella pneumoniae", "test": "Antibacterial activity against Klebsiella pneumoniae after 18 to 20 hrs by broth micro dilution assay", "format": "functional"}, "Pseudomonas aeruginosa [26]": {"system": "Pseudomonas aeruginosa", "test": "Antibacterial activity against Pseudomonas aeruginosa at 15 ug after 24 hrs by disc diffusion assay", "format": "functional", "conditions": "read-out: IZ"}, "Escherichia coli [27]": {"system": "Escherichia coli", "test": "Antibacterial activity against Escherichia coli at 25 ug after 24 hrs by disc diffusion assay", "format": "functional", "conditions": "read-out: IZ"}, "Staphylococcus aureus [28]": {"system": "Staphylococcus aureus", "test": "Antibacterial activity against Staphylococcus aureus after 18 to 20 hrs by broth micro dilution assay", "format": "functional"}, "Klebsiella pneumoniae [29]": {"system": "Klebsiella pneumoniae", "test": "Antibacterial activity against Klebsiella pneumoniae at 25 ug after 24 hrs by disc diffusion assay", "format": "functional", "conditions": "read-out: IZ"}, "Escherichia coli [30]": {"system": "Escherichia coli", "test": "Antibacterial activity against Escherichia coli at 20 ug after 24 hrs by disc diffusion assay", "format": "functional", "conditions": "read-out: IZ"}, "Pseudomonas aeruginosa [31]": {"system": "Pseudomonas aeruginosa", "test": "Antibacterial activity against Pseudomonas aeruginosa at 25 ug after 24 hrs by disc diffusion assay", "format": "functional", "conditions": "read-out: IZ"}, "Klebsiella pneumoniae [32]": {"system": "Klebsiella pneumoniae", "test": "Antibacterial activity against Klebsiella pneumoniae at 10 ug after 24 hrs by disc diffusion assay", "format": "functional", "conditions": "read-out: IZ"}, "Staphylococcus aureus [33]": {"system": "Staphylococcus aureus", "test": "Antibacterial activity against Staphylococcus aureus at 10 ug after 24 hrs by disc diffusion assay", "format": "functional", "conditions": "read-out: IZ"}, "Bacillus subtilis [34]": {"system": "Bacillus subtilis", "test": "Antibacterial activity against Bacillus subtilis at 20 ug after 24 hrs by disc diffusion assay", "format": "functional", "conditions": "read-out: IZ"}, "Staphylococcus aureus [35]": {"system": "Staphylococcus aureus", "test": "Antibacterial activity against Staphylococcus aureus at 15 ug after 24 hrs by disc diffusion assay", "format": "functional", "conditions": "read-out: IZ"}, "Klebsiella pneumoniae [36]": {"system": "Klebsiella pneumoniae", "test": "Antibacterial activity against Klebsiella pneumoniae at 15 ug after 24 hrs by disc diffusion assay", "format": "functional", "conditions": "read-out: IZ"}, "Salmonella typhi [37]": {"system": "Salmonella typhi", "test": "Antibacterial activity against Salmonella typhi at 25 ug after 24 hrs by disc diffusion assay", "format": "functional, Salmonella enterica subsp. enterica serovar Typhi", "conditions": "Salmonella enterica, read-out: IZ"}},
  "note": "Activity calls are given as the source filed them. The rule behind the calls is not given here.",
  "data": [
    {"molecule": "CCC1[C@@H]2Nc3ccc(Cl)cc3C(C)(C)[C@H]2CN1OS(=O)(=O)c1ccc(C)cc1", "note": "(stereo partly drawn)", "values": [
      {"measurement": "DNA gyrase inhibition (active/inactive)", "setting": "Escherichia coli [1]", "result": "Active"},
      {"measurement": "zone of inhibition at 5 µg/disc", "setting": "Salmonella typhi [2]", "result": 10, "unit": "mm"},
      {"measurement": "inhibition of gyrase mRNA expression (active/not active)", "setting": "Escherichia coli [3]", "result": "Active"},
      {"measurement": "zone of inhibition at 5 µg/disc", "setting": "Escherichia coli [4]", "result": 10, "unit": "mm"},
      {"measurement": "zone of inhibition at 5 µg/disc", "setting": "Klebsiella pneumoniae [5]", "result": 20, "unit": "mm"},
      {"measurement": "MIC50", "setting": "Bacillus subtilis [6]", "result": 128, "unit": "µg/mL"},
      {"measurement": "MIC90", "setting": "Bacillus subtilis [6]", "result": 128, "unit": "µg/mL"},
      {"measurement": "zone of inhibition at 10 µg/disc", "setting": "Pseudomonas aeruginosa [7]", "result": 14, "unit": "mm"},
      {"measurement": "zone of inhibition at 25 µg/disc", "setting": "Staphylococcus aureus [8]", "result": 36, "unit": "mm"},
      {"measurement": "zone of inhibition at 10 µg/disc", "setting": "Escherichia coli [9]", "result": 16, "unit": "mm"},
      {"measurement": "zone of inhibition at 5 µg/disc", "setting": "Staphylococcus aureus [10]", "result": 20, "unit": "mm"},
      {"measurement": "MIC50", "setting": "Pseudomonas aeruginosa [11]", "result": 128, "unit": "µg/mL"},
      {"measurement": "MIC90", "setting": "Pseudomonas aeruginosa [11]", "result": 128, "unit": "µg/mL"},
      {"measurement": "zone of inhibition at 15 µg/disc", "setting": "Escherichia coli [12]", "result": 18, "unit": "mm"},
      {"measurement": "zone of inhibition at 20 µg/disc", "setting": "Salmonella typhi [13]", "result": 22, "unit": "mm"},
      {"measurement": "zone of inhibition at 20 µg/disc", "setting": "Staphylococcus aureus [14]", "result": 30, "unit": "mm"},
      {"measurement": "zone of inhibition at 20 µg/disc", "setting": "Klebsiella pneumoniae [15]", "result": 34, "unit": "mm"},
      {"measurement": "zone of inhibition at 20 µg/disc", "setting": "Pseudomonas aeruginosa [16]", "result": 20, "unit": "mm"},
      {"measurement": "zone of inhibition at 10 µg/disc", "setting": "Salmonella typhi [17]", "result": 16, "unit": "mm"},
      {"measurement": "zone of inhibition at 5 µg/disc", "setting": "Pseudomonas aeruginosa [18]", "result": 10, "unit": "mm"},
      {"measurement": "MIC50", "setting": "Salmonella typhi [19]", "result": 128, "unit": "µg/mL"},
      {"measurement": "MIC90", "setting": "Salmonella typhi [19]", "result": 128, "unit": "µg/mL"},
      {"measurement": "MIC50", "setting": "Escherichia coli [20]", "result": 128, "unit": "µg/mL"},
      {"measurement": "MIC90", "setting": "Escherichia coli [20]", "result": 128, "unit": "µg/mL"},
      {"measurement": "inhibition", "setting": "Escherichia coli [21]", "result": "Active"},
      {"measurement": "zone of inhibition at 15 µg/disc", "setting": "Salmonella typhi [22]", "result": 18, "unit": "mm"},
      {"measurement": "zone of inhibition at 15 µg/disc", "setting": "Bacillus subtilis [23]", "result": 6, "unit": "mm"},
      {"measurement": "zone of inhibition at 25 µg/disc", "setting": "Bacillus subtilis [24]", "result": 9, "unit": "mm"},
      {"measurement": "MIC50", "setting": "Klebsiella pneumoniae [25]", "result": 128, "unit": "µg/mL"},
      {"measurement": "MIC90", "setting": "Klebsiella pneumoniae [25]", "result": 128, "unit": "µg/mL"},
      {"measurement": "zone of inhibition at 15 µg/disc", "setting": "Pseudomonas aeruginosa [26]", "result": 16, "unit": "mm"},
      {"measurement": "zone of inhibition at 25 µg/disc", "setting": "Escherichia coli [27]", "result": 23, "unit": "mm"},
      {"measurement": "MIC50", "setting": "Staphylococcus aureus [28]", "result": 128, "unit": "µg/mL"},
      {"measurement": "MIC90", "setting": "Staphylococcus aureus [28]", "result": 128, "unit": "µg/mL"},
      {"measurement": "zone of inhibition at 25 µg/disc", "setting": "Klebsiella pneumoniae [29]", "result": 36, "unit": "mm"},
      {"measurement": "zone of inhibition at 20 µg/disc", "setting": "Escherichia coli [30]", "result": 20, "unit": "mm"},
      {"measurement": "zone of inhibition at 25 µg/disc", "setting": "Pseudomonas aeruginosa [31]", "result": 23, "unit": "mm"},
      {"measurement": "zone of inhibition at 10 µg/disc", "setting": "Klebsiella pneumoniae [32]", "result": 26, "unit": "mm"},
      {"measurement": "zone of inhibition at 10 µg/disc", "setting": "Staphylococcus aureus [33]", "result": 24, "unit": "mm"},
      {"measurement": "zone of inhibition at 20 µg/disc", "setting": "Bacillus subtilis [34]", "result": 7, "unit": "mm"},
      {"measurement": "zone of inhibition at 15 µg/disc", "setting": "Staphylococcus aureus [35]", "result": 26, "unit": "mm"},
      {"measurement": "zone of inhibition at 15 µg/disc", "setting": "Klebsiella pneumoniae [36]", "result": 30, "unit": "mm"},
      {"measurement": "zone of inhibition at 25 µg/disc", "setting": "Salmonella typhi [37]", "result": 24, "unit": "mm"}
    ]}
  ]
}
